Legend:
[1] = test system: small cell lung cancer cell line H69; experiment: MTT proliferation, small cell lung cancer cell line H69; type: cell-based; conditions: MTT, 72 hours, H69; read-out: IC50 (μM) of compounds in small cell lung cancer cells, H69
Experimental: (§1) The method for determining inhibitory activities of the compounds on the proliferation of tumor cells by an MTT method is as follows: a bottle of cells in a good state in an exponential growth phase is added with 0.25% trypsin digestive juice, the digestion makes adherent cells fall off, with 2 to 4×10^4 cells/mL, and a cell suspension is prepared. The cell suspension is inoculated on a 96-well plate, with 90 μL/well, and cultured in a constant-temperature CO2 incubator for 24 hours. The prepared compounds are added for testing, with 10 μL/well, and cultured for 72 hours. An MTT reagent is added into a 96-well plate, with 10 μL/well, and reacts in an incubator for 4 hours to absorb a supernatant, and then dimethyl sulfoxide is added, with 100 μL/well. After a crystal is dissolved, an absorbance of each well at a wavelength of 570 nm is measured by an enzyme-linked immunosorbent assay instrument, and a cell inhibition rate is calculated. An S curve is made with a compound concentration and a corresponding inhibition rate. Therefore, IC50 of a corresponding compound is obtained.
(§2) Anti-tumor dose-effect relationship curves of cordycepin and compounds 1, 2, 4, 5, 7, 8, 10, 12, 16, 18, 21, 23, 24, 35 and 38 in small cell lung cancer cell lines H1048, H446 and H69 were analyzed by an MTT experimental method.

[2] = test system: small cell lung cancer cell line H1048; experiment: MTT proliferation, small cell lung cancer cell line H1048; type: cell-based; conditions: MTT, 72 hours, H1048; read-out: IC50 (μM) of compounds in small cell lung cancer cells, H1048
Experimental: as §1, §2

[3] = test system: MC-38 colon cancer cells; experiment: Mouse transplanted colon cancer model; type: in vivo, C57BL/6j nude mice; conditions: MC-38 transplanted mice, 28 days, 500 ug/time/animal intragastric (compound daily, antibody every 4 days); control 1,300 mm^3
Experimental: The feeding of the mouse model in the drug evaluation follows that: mice are fed and treated in a laminar flow cabinet, with 5 nude mice in each cage, drinking water and feedstuffs are added once every 3 days, and paddings are replaced once a week; a number of mice kept in each cage is no more than 5, the mice in separate cages are kept in groups as far as possible, and the mice should not be kept in a single cage; the animal management must conform to the relevant national standards on animal feeding management, and the behavioral needs of animals should be concerned at the same time to avoid unnecessary stress; the normal physiological and behavioral needs of animals, such as defecation, urination, constant body temperature maintenance, normal activities, posture adjustment and reproduction are met; good ventilation and dry animals are kept; the animals can access to drinking water and food at will, and supplementation, replacement and cleaning operations are easily carried out; a solid and safe environment is provided to avoid accidents of animals, such as escaping or limb trapping in a gap; the animals are avoided from being damaged by sharp edges or protrusions; and the animals are not disturbed during observation.
A mouse transplanted colon cancer model was established and a drug was evaluated. […]

[4] = test system: small cell lung cancer cell line H446; experiment: MTT proliferation, small cell lung cancer cell line H446; type: cell-based; conditions: MTT, 72 hours, H446; read-out: IC50 (μM) of compounds in small cell lung cancer cells, H446
Experimental: as §1, §2

[5] = test system: gastric cancer cell line AGS; experiment: MTT proliferation, gastric cancer cell line AGS; type: cell-based; conditions: MTT, 72 hours, AGS; read-out: IC50 (μM) in gastric cancer cells, AGS
Experimental: as §1
(§3) Anti-tumor dose-effect relationship curves of the cordycepin and 40 compounds prepared in gastric cancer cell lines AGS and BGC-823 were analyzed by an MTT experimental method.

[6] = test system: gastric cancer cell line BGC-823; experiment: MTT proliferation, gastric cancer cell line BGC-823; type: cell-based; conditions: MTT, 72 hours, BGC-823; read-out: IC50 (μM) in gastric cancer cells, BGC-823
Experimental: as §1, §3

Q: `CC(C)OC(=O)[C@H](C)NP(=O)(COCC1CC(C#N)C(n2cnc3c(N)ncnc32)O1)Oc1ccccc1` (stereo partly drawn) [Compound 16] was tested. Which IC50 [1] did it give?
A: 23.3 µM

Q: What about the IC50 [2] of the same compound?
A: 25.5 µM

Q: And the tumor size [3]?
A: 480 mm^3

Q: And the IC50 [4]?
A: 19.1 µM

Q: What about the IC50 [5] of the same compound?
A: 0.14 µM

Q: What about the IC50 [6] of the same compound?
A: 0.19 µM
